Test results published in ChEMBL document CHEMBL1201862, “PubChem BioAssay data set” (2004).
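Method: 48-hour compound exposure of cells in 96-well plates, five concentrations, linear interpolation of endpoints. At the GI50, growth is halved.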 Calls of active or inactive are those of the source. No stated cut-off is given here; in the data, active = GI50 up to about 1.1 µM and inactive = higher.

Columns and labels:
Assay in all cases: NCI anticancer screen, dose series, 48 h
A498 = tested on: A498
EKVX = tested on: EKVX
HCT-116 = tested on: HCT-116
HT-29 = tested on: HT-29
KM12 = tested on: KM12
M14 = tested on: M14
MOLT-4 = tested on: MOLT-4
NCI-H226 = tested on: NCI-H226
NCI-H460 = tested on: NCI-H460
OVCAR-8 = tested on: OVCAR-8
RXF 393 = tested on: RXF 393
SK-MEL-2 = tested on: SK-MEL-2
SK-MEL-5 = tested on: SK-MEL-5
SNB-75 = tested on: SNB-75
U-251 = tested on: U-251
UACC-257 = tested on: UACC-257
NCI-H522 = tested on: NCI-H522

Measured: GI50

Cc1ccc(S(=O)(=O)Nc2ccccc2C(C)(C)C)cc1
inactive: A498 24 µM | EKVX 33.2 µM | HCT-116 15.2 µM | HT-29 16.2 µM | KM12 17.2 µM | M14 > 10 µM | MOLT-4 20.9 µM | NCI-H226 22.1 µM | NCI-H460 18.6 µM | OVCAR-8 29.6 µM | RXF 393 6.31 µM | SK-MEL-2 26.7 µM | SK-MEL-5 15.2 µM | SNB-75 35.9 µM | U-251 20.6 µM | UACC-257 16.1 µM

Cc1nc(-n2nc(-c3ccccc3)cc2-c2ccccc2)sc1C(=O)CC(=O)C(=O)Nc1ccc(O)cc1
inactive: A498 > 100 µM | EKVX > 100 µM | HCT-116 > 100 µM | HT-29 > 100 µM | KM12 > 100 µM | M14 > 100 µM | MOLT-4 > 100 µM | NCI-H226 > 100 µM | NCI-H522 > 100 µM | OVCAR-8 > 100 µM | RXF 393 > 100 µM | SK-MEL-2 > 100 µM | SNB-75 > 100 µM | U-251 > 100 µM | UACC-257 > 100 µM

C1OC1C1CO1 (stereo unspecified)
inactive: EKVX > 100 µM | HCT-116 95.1 µM | HT-29 > 100 µM | KM12 > 100 µM | M14 > 100 µM | MOLT-4 3.28 µM | NCI-H226 > 100 µM | NCI-H522 33.6 µM | OVCAR-8 > 100 µM | RXF 393 48.4 µM | SK-MEL-2 > 100 µM | SK-MEL-5 45.2 µM | SNB-75 14.6 µM | U-251 20.1 µM | UACC-257 27.9 µM

CC(=O)O/N=C(/C)c1ccccc1O
inactive: EKVX > 100 µM | HCT-116 > 100 µM | HT-29 > 100 µM | KM12 > 100 µM | M14 > 100 µM | MOLT-4 > 100 µM | NCI-H226 > 100 µM | NCI-H460 > 100 µM | NCI-H522 > 100 µM | OVCAR-8 > 100 µM | RXF 393 > 100 µM | SK-MEL-2 > 100 µM | SNB-75 > 100 µM | U-251 > 100 µM | UACC-257 > 100 µM

O=C1c2ccccc2C(=O)c2c(O)c(NCCNCCO)cc(O)c21
inactive: A498 7.26 µM | EKVX 2.47 µM | HCT-116 2.3 µM | HT-29 3.23 µM | KM12 3.72 µM | M14 4.42 µM | MOLT-4 3.02 µM | NCI-H226 3.83 µM | NCI-H460 3.34 µM | OVCAR-8 3.01 µM | RXF 393 4.74 µM | SK-MEL-2 5.07 µM | SK-MEL-5 3.44 µM | SNB-75 4.52 µM | UACC-257 6.59 µM

CC1(C)CC(=O)C=C(NC(=O)c2ccccc2)C1
inactive: A498 > 100 µM | EKVX > 100 µM | HCT-116 > 100 µM | HT-29 > 100 µM | KM12 > 100 µM | M14 > 100 µM | MOLT-4 > 100 µM | NCI-H460 > 100 µM | NCI-H522 > 100 µM | OVCAR-8 > 100 µM | RXF 393 > 100 µM | SK-MEL-2 > 100 µM | SK-MEL-5 > 100 µM | SNB-75 > 100 µM | U-251 > 100 µM | UACC-257 > 100 µM

C(=C1/CCCCC([n+]2ccccc2)=N1)/c1ccccc1
inactive: EKVX > 100 µM | HCT-116 > 100 µM | HT-29 > 100 µM | M14 > 100 µM | MOLT-4 > 100 µM | NCI-H226 > 100 µM | NCI-H460 > 100 µM | NCI-H522 > 100 µM | OVCAR-8 > 100 µM | RXF 393 > 100 µM | SK-MEL-2 > 100 µM | SNB-75 > 100 µM | U-251 > 100 µM

Clc1ccc2c(Cl)ncnc2c1
inactive: A498 > 100 µM | EKVX 63.4 µM | HCT-116 > 100 µM | HT-29 > 100 µM | KM12 > 100 µM | M14 > 100 µM | MOLT-4 > 100 µM | NCI-H226 32.7 µM | NCI-H460 > 100 µM | NCI-H522 > 100 µM | OVCAR-8 > 100 µM | SK-MEL-2 > 100 µM | SK-MEL-5 > 100 µM | SNB-75 42.8 µM | U-251 > 100 µM | UACC-257 > 100 µM

CCOCc1cc(=O)c2c(OC)cc3c(c2o1)CCC(C)(C)O3
inactive: EKVX > 100 µM | HCT-116 > 100 µM | HT-29 > 100 µM | KM12 > 100 µM | M14 > 100 µM | MOLT-4 > 100 µM | NCI-H460 > 100 µM | NCI-H522 > 100 µM | OVCAR-8 > 100 µM | RXF 393 > 100 µM | SK-MEL-2 > 100 µM | SK-MEL-5 > 100 µM | SNB-75 > 100 µM | U-251 > 100 µM | UACC-257 > 100 µM
